Results taken from patent US20100247461A1, “ANTI-INFLAMMATORY COMPLEXES” (Signum Biosciences, Inc., priority 2009, published 2010).
≈ marks a conversion by molar mass, not a printed value.

Columns and labels:
[1] = test system: TPA-treated mouse ears (edema, ear thickness); assay: TPA mouse ear model of inflammation - edema inhibition; type: in vivo; conditions: TPA-treated mouse ear, at the dose tested; AFC oil n=1, data not shown
Protocol: In brief, mice were sedated and their ears were treated with 1.2 μg/20 uL TPA (i.e., tetradecanoylphorbol-13-acetate). After 5 minutes, we dosed these TPA-treated ears with a single 8 μg/20 μL dose, a 2 μg/20 μL dose, or both doses, of provided complexes. After 24 hours, the mice were sacrificed and edema was measured by taking micrometer readings of each ear. […] These values were corrected for the thickness of normal, non TPA-treated mouse ears of littermate controls.

[2] = test system: MPO (myeloperoxidase), neutrophil marker; assay: TPA mouse ear model of inflammation - MPO inhibition (dermal neutrophil infiltration); type: in vivo; conditions: for % MPO Inhibition in the Mouse Ear Inflammation Assay (4% concentration): topical, 24 hours
Protocol: Briefly, we homogenized 6mm biopsy punches taken from both compound-treated ears as well as TPA-treated and non-treated control groups. We quantitated the levels of MPO by a colorimetric reaction that was measured spectrophotometrically. The percent inhibition of neutrophil infiltration by each complex was determined by comparing the average MPO levels in the presence and absence of these compounds. The calculation for percent inhibition of MPO was determined similar to that as described for calculating the percent edema inhibition, see the Edema Inhibition protocol, supra.

[3] = test system: TPA-treated mouse ears (edema, ear thickness); assay: TPA mouse ear model of inflammation - edema inhibition; type: in vivo; conditions: topical, 24 hours
[4] = test system: Propionibacterium acnes (strain ATCC 6919); assay: Inhibition of Propionibacterium acnes growth; type: cell-based; conditions: 72 hours, anaerobic, absorbance 600 nm, 1×10^6 CFU per mL
Protocol: The assay for the inhibition of growth of Propionibacterium acnes bacteria is described elsewhere (Nakatsuji et al., J Invest Dermatol, 2009, 129: 2480-2488). In brief, the strain ATCC 6919 of P. acnes (American Type Culture Collection, Manassas, Va.) was cultured on Brucella agar (R01254, Remel, Lenexa, Kans.) supplemented with 5% (v/v) defibrinated sheep blood, vitamin K (5 mg/ml, Remel, Lenexa, Kans.), and hemin (50 mg/ml, Remel, Lenexa, Kans.), under an anaerobic condition using Gas-Pak (BD, Sparks, Md.) at 37° C. A single colony was inoculated in Reinforced Clostridium Medium (Oxford, Hampshire, England) and cultured at 37° C. under the anaerobic condition. Each of the inventive complexes—AFC-Sr, AFC-Ag and AFC-Zn as well as AFC were dissolved in 100% (v/v) DMSO. Samples of each inventive complex, AFC and a solution of benzoyl peroxide (“BPO”) were then each incubated with an inoculum of P. acnes at a concentration of 1×10^6 CFU per mL in Reinforced Clostridium Medium in a 96-well microplate (100 μL per well) under anaerobic conditions for 72 hours. Samples of each were tested at final concentrations per well of 0.25 μg/mL, 0.5 μg/mL, 1.0 μg/mL, 1.95 μg/mL, 3.9 μg/mL, 7.8 μg/mL, 15.625 μg/mL, 31.25 μg/mL, 62.5 μg/mL, 125 μg/mL, 250μg/mL, and 500 μg/mL. A control well received only 5% (v /v) of DMSO in place of a sample of an inventive complex. After 72 hours incubation under anaerobic conditions, the P. acnes cultures in the 96-well microplate were mixed well and then absorbance readings at 600 nm were taken to determine bacterial growth. […] Growth curves of P. acnes determined for BPO, AFC, AFC-Sr, AFC-Ag and AFC-Zn are depicted in FIG. 3.

[5] = test system: MPO activity (neutrophil infiltration) in P. acnes-injected ear; assay: P. acnes-induced mouse ear model of inflammation - MPO endpoint; type: in vivo
Protocol: The methods for a model of P. acnes-inflammation are described elsewhere (Nakatsuji et al., J Invest Dermatol, 2008, 128: 2451-2457).
The protocol for inducing inflammation using P. acnes bacterial challenge on the mouse ear was slightly modified from the method described previously (Natatsuji et al., 2008). Briefly, Swiss Webster (ICR, 6-8 weeks old) mouse ears were injected with living P. acnes culture intradermally. An amount of 20 μl aliquots of living P. acnes (ATCC 6919, 3×10^6 CFU) suspended in PBS was intradermally injected in the central portion of the ear. As a control, 20 μl of PBS was injected into control animals.
To assay for inhibition of dermal neutrophil infiltration by AFC complexes, a standard method was used (see Bradley et al., J Invest Dermatol, 1982,78: 206-209; Young et al., J Invest Dermatol, 1983, 80: 48-52; De Young et al, Agents Actions, 1989, 26: 335-41; and Rao et al., Inflammation, 1993, 17: 723-41). Briefly, 6mm biopsy punches taken from both compound-treated ears as well as non-treated control ears were homogenized in 400 μl of 0.5% hexadecyltrimethylammonium bromide in 50 mM potassium phosphate buffer (pH 6.0) using the Fast Prep 24 (MP Biomedicals, Solon, Ohio). Supernatants were assayed for MPO activity using a model EL 340 96-well plate reader (BioTek Instruments, Winooski, Vt.). The percent inhibition of neutrophil infiltration by each AFC complex was determined by comparing the average MPO levels in the presence and absence of these compounds. The percent inhibition of MPO was determined by taking the average MPO activity of compound-treated ears and dividing it by the average MPO activity of 12 ears that only received the P. acnes challenge and subtracting that value from 100%. These values were corrected for the MPO activity of normal, non P. acnes-treated mouse ears of littermate controls. Summary of MPO activity ranges determined from an MPO activity assay for dexamethasone (administered at a dose of 1.6 mg/20 μL), clobetasol (administered at a dose of 0.1 mg/20 μL), salicylic acid (administered at a dose of 0.4 mg/20 μL), AFC (administered at a dose of 0.4 mg/20 μL), AFC-Strontium complex (administered at a dose of 0.4 mg/20 μL) and SFC-disodium are presented in Table 4. “+” indicates a range of 0-20%, “++” indicates a range of 20-40%, and “+++” indicates >40% inhibition.

[6] = test system: mouse skin reepithelialization; assay: Mouse wound healing model - skin reepithelialization; type: in vivo
Description: The healing of wounded skin is mediated by epidermal reepithelialization that requires keratinocyte migration. Glucocorticoids are known to inhibit wound healing (Ehrlich et al., Proc Soc Exp Biol Med, 1971, 137: 936-938; Leibovich et al., Am J Pathol, 1975, 78, 71-100). […] The methods for studying mouse skin reepithelialization using both partial and full thickness mouse wound healing models have been described elsewhere (Kim et al. Wound Repair Regen, 2001, 9: 386-390). In brief, for partial thickness wounds, a 3 mm-diameter circle of epidermis is removed from the ventral auricle. The resulting wound is cleansed and dressed with an occlusive polyurethane film. The mouse ears are excised on days 3, 5, 8, and 11 post-operation and fixed in 10% buffered formalin. Following day 8 post-operation, sampling of treated mice is performed to determine completion of healing. For full thickness wounds, mice heads are shaved and depilated prior to excising the skin. The cleaned and dressed wounds are harvested and fixed at days 3, 5, 8 and 10 and fixed in 10% buffered formalin.

[7] = test system: TPA-treated mouse ears (erythema, Δa* redness); assay: TPA mouse ear model of inflammation - erythema inhibition; type: in vivo; conditions: topical, 24 hours
Protocol: The protocol for measuring erythema inhibition by provided complexes was developed in-house by utilizing the CR-400 chroma meter from Konica Minolta (2). This instrument was used to measure the Δa*redness value from 6 mm biopsy punches taken 24 hours post TPA/compound treatment as described in the edema inhibition section above. […] These values were corrected for the Δa* value of non TPA-treated mouse ears of littermate controls.

Molecule | % MPO Inhibition in the Mouse Ear Inflammation Assay (4% concentration) ([2]; TPA-treated mouse ear) | % Edema Inhibition in the Mouse Ear Inflammation Assay (4% concentration) [3] | % Erythema Inhibition in the Mouse Ear Inflammation Assay (4% concentration) [7] | other results
CC(=O)N[C@@H](CSC/C=C(\C)CC/C=C(\C)CCC=C(C)C)C(=O)O [AFC-Glucosamine complex, Glucosamine (R)-2-acetamido-3-((2E,6E)-3,7,11-trimethyldodeca-2,6,10-trienylthio)propanoate] | ++ (“++” indicates a range of 40-80%) | +++ (“+++” indicates >50% inhibition of edema) |  | inhibition of edema [1]: 70.84±5.25%; inhibition of neutrophil infiltration ([2]; TPA-treated mouse ear, at the dose tested, AFC oil n=1, data not shown): 73.15±6.0%
O=C(OOC(=O)c1ccccc1)c1ccccc1 [BPO, benzoyl peroxide, reference compound] |  |  |  | IC50 ([4]; Cutibacterium acnes, ATCC6919, 72 h, read-out: IC50 (inhibition of P. acnes growth)): 161 µg/mL (≈ 665 µM)
C[C@H]1C[C@H]2[C@@H]3CCC4=CC(=O)C=C[C@]4(C)[C@@]3(F)[C@@H](O)C[C@]2(C)[C@@]1(O)C(=O)CCl [Clobetasol] |  |  |  | MPO % Inhibition ([5]; dose of 0.1 mg/20 μL): +++ (“+++” indicates >40% inhibition); effect on mouse skin reepithelialization of wounds [6]: significantly delayed
C[C@@H]1C[C@H]2[C@@H]3CCC4=CC(=O)C=C[C@]4(C)[C@@]3(F)[C@@H](O)C[C@]2(C)[C@@]1(O)C(=O)CO [Dexamethasone] |  |  |  | MPO % Inhibition ([5]; dose of 1.6 mg/20 μL): +++ (“+++” indicates >40% inhibition)
CC(C)=CCC/C(C)=C/CC/C(C)=C/CSC[C@H](NC(=O)CCC(=O)O)C(=O)O [SFC, N-succinyl-S-farnesyl-L-cysteine] | +++ (“+++” indicates >80% inhibition of MPO) | +++ (“+++” indicates >50% inhibition of edema) | + (“+”indicates a range of 0-20%) | 
CC(C)=CCC/C(C)=C/CC/C(C)=C/CSC[C@H](NC(=O)CCC(=O)[O-])C(=O)[O-].[Na+].[Na+] [SFC-disodium] | ++ (“++” indicates a range of 40-80%) | ++ (“++” indicates a range of 20-50%) | ++ (“++” indicates a range of 20-40%) | MPO % Inhibition ([5]; dose not given): +++ (“+++” indicates >40% inhibition)
CC(C)=CCC/C(C)=C/CC/C(C)=C/CSC[C@H](NC(=O)CCC(=O)[O-])C(=O)O.[Na+] [SFC-monosodium] | ++ (“++” indicates a range of 40-80%) | ++ (“++” indicates a range of 20-50%) | ++ (“++” indicates a range of 20-40%) | 
O=C(O)c1ccccc1O [Salicylic Acid] |  |  |  | MPO % Inhibition ([5]; dose of 0.4 mg/20 μL): ++ (“++” indicates a range of 20-40%)
[Cl-].[Cl-].[Sr+2] [Strontium chloride, reference compound] |  | + (“+”indicates a range of 0-20%) | + (“+”indicates a range of 0-20%) | biological activity compared with AFC-strontium complex (FIG. 1) ([2]; FIG. 1, follows the MPO discussion of b517, assay not named): no significant activity
Calcium 4-((R)-1-carboxy-2-((2E,6E)-3,7,11-trimethyldodeca-2,6,10-trienylthio)ethylamino)-4-oxobutanoate [SFC-calcium complex] | ++ (“++” indicates a range of 40-80%) | +++ (“+++” indicates >50% inhibition of edema) | +++ (“+++” indicates >40% inhibition of erythema) | 
Strontium (R)-2-amino-3-((2E,6E)-3,7,11-trimethyldodeca-2,6,10-trienylthio)propanoate [Farnesyl Cysteine-Strontium complex] |  | ++ (“++” indicates a range of 20-50%) | ++ (“++” indicates a range of 20-40%) | 
Zinc (R)-2-acetamido-3-((2E,6E)-3,7,11-trimethyldodeca-2,6,10-trienylthio)propanoate [AFC-Zinc complex] |  |  |  | IC50 (inhibition of P. acnes growth) [4]: 9.2 µg/mL
